Measured values: PMC12195250, “Synthesis, Biological Evaluation, Molecular Dynamics, and QM-MM Calculation of Spiro-Acridine Derivatives Against Leishmaniasis” (Microorganisms, 2025)
“Also recorded” adds a separate entry of the source. Like-named read-outs stand apart in the source and are kept apart here.

Legend:
[1] = test system: L. infantum promastigotes (Strain MHOM/BR/70/BH46); assay: Anti-promastigote effect, Neubauer chamber counting; assay type: cell-based, Leishmania infantum; conditions: 72 h incubation, read-out: L. infantum IC50PRO
Method: (§1) The promastigote cultures of L. infantum (Strain MHOM/BR/70/BH46) and L. amazonensis (Strain MHOM/BR/PH8) were kept in Schneider medium (Sigma-Aldrich, St. Louis, MO, USA) supplemented with 20% fetal bovine serum (FBS) and 1% streptomycin/penicillin in a B.O.D. incubator (J. Prolab, model JP. 100 LBCM/CPAM) at 26 °C. The promastigote strains were used in the exponential growth phase in all stages for experimental purposes.
(§2) The Neubauer chamber method was used to assess the inhibitory concentrations of the synthesized spiro-acridines capable of eliminating 50% of the promastigotes in cultures of L. amazonensis and L. infantum (IC50) strains. Promastigotes from both species were collected, counted, and diluted in Schneider’s medium (Sigma-Aldrich, St. Louis, MO, USA) supplemented with 20% fetal bovine serum (FBS) at a final concentration of 1 × 10^6 cells/mL. The evaluated promastigotes were then exposed to different concentrations of the tested compounds (10, 5, 2.5, 1.25, and 0.625 μg/mL). The positive control used the commercial drug Amphotericin B®, while the negative control consisted of promastigotes incubated in Schneider’s medium alone. After 72 h of incubation at 25 °C, culture growth was observed by counting the viable cells using a Neubauer chamber and calculated using the following Equation (1): No. Leishmania/mL = No. of cells counted × No. of Neubauer chamber(1) quadrants × the dilution used × 10^4 (Neubauer chamber correction factor)
(§3) The concentration parameter that inhibits 50% of parasite growth (IC50) was used to estimate the growth inhibition of the promastigote species of Leishmania sp. Thus, IC50 was determined by linear regression analysis with SPSS 8.0 software for Windows. Each test was performed in two independent experiments, with different cultures and in technical triplicate.

[2] = test system: L. amazonensis promastigotes (Strain MHOM/BR/PH8); assay: as above; assay type: cell-based, Leishmania amazonensis; conditions: 72 h incubation, read-out: L. amazonensis IC50PRO
Method: as §1, §2, §3

[3] = test system: L. amazonensis axenic amastigotes; assay: Anti-amastigote effect on axenic amastigotes, MTT; assay type: cell-based, Leishmania amazonensis; conditions: L. amazonensis axenic amastigotes, 24 h, MTT
Method: The amastigote forms of L. amazonensis were maintained under cryopreservation until they were transferred to an NNN medium (Novy–MacNeal–Nicolle) and incubated at 26 °C until the parasites reached the log growth phase. Subsequently, the suspension was transferred to Schneider culture medium (Sigma-Aldrich, St. Louis, MO, USA), supplemented with 20% inactivated fetal bovine serum and 0.2% gentamicin sulfate at 26 °C, causing the parasites to return to the log growth phase. The cultures were then maintained at 37 °C, producing a growth curve and the formation of the axenic amastigote strains.
The concentrations of the compounds AMTAC-02 and ACMD-03 capable of eliminating 50% of the cells in the cultures of L. amazonensis amastigotes (IC50) were determined using the MTT [3-(4,5-dimethylthiazol-2-yl)-2,5-diphenyltetrazolium bromide] (Sigma-Aldrich) reagent. In a 96-well plate, the assay was initiated by diluting both compounds to concentrations of 2, 4, 8, 16, and 32 μg/mL and 2.0 × 10^5 axenic amastigotes per well. The plates were incubated at 37 °C for 24 h. Then, 10 μL of MTT was added per well, and the cultures were re-incubated for 4 h. Subsequently, 50 μL of dimethyl sulfoxide was added to each well to solubilize the formazan crystals formed. The absorbances were measured using a SpectraMAX GeminiXS plate spectrophotometer (Molecular Devices LLC) at a wavelength of 570 nm. The negative control consisted of untreated cells, while the positive control was assessed by incubating the axenic amastigotes with the reference drug Amphotericin B® [13].

[4] = test system: macrophages infected with L. amazonensis; assay: Reactive oxygen and nitrogen species (DCF-DA, DAF-FM diacetate); assay type: cell-based; conditions: 24 h; for expression of ROS: 2, 4 and 8 µg/mL, DCF-DA, compared to basal macrophage
Description: The assay for the quantification of reactive oxygen species (ROS) and reactive nitrogen species (RNS) was executed using, respectively, the probe 2′,7′-dichlorodihydrofluorescein diacetate (DCF-DA) and 4-amino-5-methylamino-2′,7′-difluorofluorescein diacetate (DAF-FM diacetate), which produce 2–7-dichlorofluorescein (DCF) and 4-amino-5-methylamino-2′,7′-difluorofluorescein (DAF-FM) in the presence of the respective reactive species. Therefore, initially, macrophages were adhered to and infected with L. amazonensis in a plate, followed by the treatment with AMTAC-02 or ACMD-03 at concentrations of 2, 4, and 8 μg/mL. Subsequently, following a 24-h treatment period, the plates were incubated for 30 min with the DCF-DA probe diluted in saline (pH 7.2) and for 1 h with the DAF-FM diacetate probe diluted in saline (pH 7.2), respectively, in a humid chamber at 37 °C with 5% CO2, protected from light. The cells were washed twice with saline (pH 7.2) at room temperature and then resuspended in 200 µL of saline under the same conditions. The negative control comprised uninfected and untreated macrophages, while the positive control comprised untreated macrophages infected with L. amazonensis. Afterward, the fluorescence intensity in each sample was captured using the BD LRS II FORTESSA flow cytometer and the DIVA program version 7 (BD Bioscience). The mean fluorescence intensity (MFI) was then obtained by processing the data in FlowJoTM version 10.6.1. The experiment was performed in triplicate, and the results were calculated as the difference in MFI in each group.

Row | IC50 ([1]; Leishmania infantum) | IC50 ([2]; Leishmania amazonensis) | IC50 ([3]; Leishmania amazonensis) | Structure (SMILES) | IC50 [1] | IC50 [2] | IC50 [3] | expression of ROS [4] | expression of RNS ([4]; DAF-FM diacetate, versus infected macrophage)
1 |  |  |  | N#CC1=CC2(c3ccccc3Nc3ccccc32)N(c2ccc(Cl)cc2)C1=O [ACMD-03, (E)1′-(4-chlorophenyl)-5′-oxo-1′, 5′-dihydro-10H-spiro{acridine-9,2′-pyrrole]-4′-carbonitrile] | 7.82 µM | 11 µM | 10.5 µM | significantly increased ROS expression | intensified RNS expression; also recorded: significantly increased (* p < 0.05) RNS at a concentration of 2 µg/mL
2 | 2.22 µM | 0.73 µM | 10.5 to 13.5 µM | COc1ccc(/C=N/N2C(=O)C(C#N)=CC23c2ccccc2Nc2ccccc23)cc1 [AMTAC-02, (E)-1′-((4-methoxybenzylidene)amino)-5′-oxo-1′,5′-dihydro-10H-spiro[acridine-9,2′-pyrrole]-4′-carbonitrile] |  |  | 13.5 µM | significantly increased ROS expression | 
